System: L1210FR cells
Assay: MTT cytotoxicity assay, L1210FR cells
Assay type: cell-based
Conditions: read-out: IC50 of drug itself
Description: Cell culture. L1210 (ATCC) and L1210FR (a gift from Dr. Gregory Russell-Jones, Access Pharmaceuticals Australia Pty Ltd., Targeted Delivery, Unit 5, 15-17 Gibbes St, Chatswood, NSW, Sydney 2067. Australia) were grown as suspension in a RPMI-1640 cell culture medium (Gibco) in the absence of folic acid (FA) supplemented with 10% (v/v) heat-inactivated fetal bovine serum (FBS) and 1% (v/v) Penicillin and Streptomycin (P/S) at 37° C. in humidified atmosphere with 5% CO2. W1-38 embryonic fibroblast cells (ATCC) were cultured as monolayers on a 100 mm tissue culture dishes in a DMEM cell culture medium (Gibco) supplemented with 10% (v/v) heat-inactivated FBS and 1% (v/v) P/S at 37° C. in humidified atmosphere with 5% CO2. The cells were harvested, collected by centrifugation at 1000 rpm for 6 min, and resuspended in fresh medium at different cell density for biological experiments.
Cytotoxicity assay of conjugate 3. The cells were harvested, collected, and resuspended in 100 μL at a concentration of 2×10^4 cells per well in 96-well plates. For the adhesive cell type, the cells were allowed to reseed to the bottom of the plates overnight and the fresh medium were added to each well upon removal of the old medium. […] At the end of this time, the number of viable cells each wells was determined by a quantitative colorimetric staining assay using a tetrazolium salt (MTT, Sigma Chemical Co.). […]

## SB-T-1214-fluorescein
  IC50: 87.6 nM

— patent US20100021471A1, “CARBON NANOTUBE-BASED DRUG DELIVERY SYSTEMS AND METHODS OF MAKING SAME” (Brookhaven Science Associates, LLC, priority 2008, published 2010)
